{"source": "paper PMC10895697", "about": "(JAC-Antimicrobial Resistance, 2024)", "key": {"S. aureus": {"system": "S. aureus", "set-up": "method as in ref 19 (Abad et al.)", "conditions": "concentrations 10x or 100x respective MICs; ref 19 (Abad et al.); cited from earlier work"}, "S. aureus 1333 (MSSA)": {"system": "S. aureus 1333 (MSSA)", "experiment": "MIC/MBC by broth microdilution reference method", "format": "cell-based, Staphylococcus aureus", "conditions": "strain 1333, MSSA multi-susceptible; broth microdilution"}, "S. aureus 1334 (MSSA)": {"system": "S. aureus 1334 (MSSA)", "experiment": "MIC/MBC by broth microdilution reference method", "format": "cell-based, Staphylococcus aureus", "conditions": "strain 1334, MSSA multi-susceptible; broth microdilution"}, "S. aureus 1814 (MRSA)": {"system": "S. aureus 1814 (MRSA)", "experiment": "MIC/MBC by broth microdilution reference method", "format": "cell-based, Staphylococcus aureus", "conditions": "strain 1814, MRSA ciprofloxacin resistant; broth microdilution"}, "S. aureus 1815 (MRSA)": {"system": "S. aureus 1815 (MRSA)", "experiment": "MIC/MBC by broth microdilution reference method", "format": "cell-based, Staphylococcus aureus", "conditions": "strain 1815, MRSA gentamicin and erythromycin resistant; broth microdilution"}, "S. aureus 1816 (MSSA)": {"system": "S. aureus 1816 (MSSA)", "experiment": "MIC/MBC by broth microdilution reference method", "format": "cell-based, Staphylococcus aureus", "conditions": "strain 1816, MSSA multi-susceptible; broth microdilution"}, "S. aureus 1817 (MSSA)": {"system": "S. aureus 1817 (MSSA)", "experiment": "MIC/MBC by broth microdilution reference method", "format": "cell-based, Staphylococcus aureus", "conditions": "strain 1817, MSSA erythromycin resistant; broth microdilution"}, "S. aureus 1818 (MSSA)": {"system": "S. aureus 1818 (MSSA)", "experiment": "MIC/MBC by broth microdilution reference method", "format": "cell-based, Staphylococcus aureus", "conditions": "strain 1818, MSSA multi-susceptible; broth microdilution"}, "[1]": {"system": "S. aureus ATCC 29213 (MSSA reference strain)", "experiment": "MIC/MBC by broth microdilution reference method", "format": "cell-based, Staphylococcus aureus", "conditions": "reference strain ATCC 29213, MSSA; broth microdilution"}, "all S. aureus isolates": {"system": "all S. aureus isolates", "experiment": "MIC/MBC by broth microdilution, summary over all isolates", "format": "cell-based, Staphylococcus aureus", "conditions": "summary over all S. aureus isolates of Table 1; broth microdilution"}}, "data": [{"compound": "CO[C@H]1/C=C/O[C@@]2(C)Oc3c(C)c(O)c4c(c3C2=O)C2=NC3(CCN(CC(C)C)CC3)NC2=C(NC(=O)/C(C)=C\\C=C\\[C@H](C)[C@H](O)[C@@H](C)[C@@H](O)[C@@H](C)[C@H](OC(C)=O)[C@@H]1C)C4=O", "note": "[rifabutin]", "values": [{"measurement": "reduction in intracellular bacteria", "setting": "S. aureus", "result": "around 62.1%"}]}, {"compound": "CO[C@H]1/C=C/O[C@@]2(C)Oc3c(C)c(O)c4c(O)c(c(/C=N/N5CCN(C)CC5)c(O)c4c3C2=O)NC(=O)/C(C)=C\\C=C\\[C@H](C)[C@H](O)[C@@H](C)[C@@H](O)[C@@H](C)[C@H](OC(C)=O)[C@@H]1C", "note": "[rifampicin]", "values": [{"measurement": "reduction in intracellular bacteria", "setting": "S. aureus", "result": "approximately 54.0%"}]}, {"compound": "CO[C@H]1/C=C/O[C@@]2(C)Oc3c(C)c(O)c4c(O)c(c(/C=N/N5CCN(C6CCCC6)CC5)c(O)c4c3C2=O)NC(=O)/C(C)=C\\C=C\\[C@H](C)[C@H](O)[C@@H](C)[C@@H](O)[C@@H](C)[C@H](OC(C)=O)[C@@H]1C", "note": "[rifapentine]", "values": [{"measurement": "reduction in intracellular bacteria", "setting": "S. aureus", "result": 45.3, "unit": "%"}]}, {"compound": "teicoplanin [TEC]", "values": [{"measurement": "MBC", "setting": "S. aureus 1333 (MSSA)", "result": 1, "unit": "µg/mL"}, {"measurement": "MIC", "setting": "S. aureus 1333 (MSSA)", "result": 0.5, "unit": "µg/mL"}, {"measurement": "MBC", "setting": "S. aureus 1334 (MSSA)", "result": 0.5, "unit": "µg/mL"}, {"measurement": "MIC", "setting": "S. aureus 1334 (MSSA)", "result": 0.25, "unit": "µg/mL"}, {"measurement": "MBC", "setting": "S. aureus 1814 (MRSA)", "result": 1, "unit": "µg/mL"}, {"measurement": "MIC", "setting": "S. aureus 1814 (MRSA)", "result": 0.5, "unit": "µg/mL"}, {"measurement": "MBC", "setting": "S. aureus 1815 (MRSA)", "result": 1, "unit": "µg/mL"}, {"measurement": "MIC", "setting": "S. aureus 1815 (MRSA)", "result": 0.5, "unit": "µg/mL"}, {"measurement": "MBC", "setting": "S. aureus 1816 (MSSA)", "result": 0.5, "unit": "µg/mL"}, {"measurement": "MIC", "setting": "S. aureus 1816 (MSSA)", "result": 0.25, "unit": "µg/mL"}, {"measurement": "MBC", "setting": "S. aureus 1817 (MSSA)", "result": 1, "unit": "µg/mL"}, {"measurement": "MIC", "setting": "S. aureus 1817 (MSSA)", "result": 0.5, "unit": "µg/mL"}, {"measurement": "MBC", "setting": "S. aureus 1818 (MSSA)", "result": 2, "unit": "µg/mL"}, {"measurement": "MIC", "setting": "S. aureus 1818 (MSSA)", "result": 1, "unit": "µg/mL"}, {"measurement": "MBC", "setting": "[1]", "result": 1, "unit": "µg/mL"}, {"measurement": "MIC", "setting": "[1]", "result": 0.5, "unit": "µg/mL"}, {"measurement": "MICs for all S. aureus isolates", "setting": "all S. aureus isolates", "result": "0.25 to 1", "unit": "mg/L"}]}]}
